Values after ≈ are worked out from the molar mass of the structure shown. Values joined by “and” are separate entries in the source; they are usually repeats but may differ in a detail not shown here. Identical values can stand only once. Like-named read-outs stand apart in the source and are kept apart here.
Assays:
[1] = Stability of the solubilized compound (remains soluble) by reverse phase HPLC
Experimental: (§1) Ethanolamine (8 μL) was subsequently added and mixed using a VORTEX®. After mixing, the sample was dispersed in 466 μL of water for injection.
(§2) Ethanolamine (62 μL) was subsequently added and mixed using a VORTEX®. After mixing, the sample was dispersed in 784 μL of water for injection.
(§3) Digoxin (1 mg) was added to 28 μL of oleic acid and mixed using VORTEX. Ethanolamine (6 μL) was subsequently added and mixed using a VORTEX®. After mixing, the sample was dispersed in 966 μL of water for injection.
(§4) Digoxin (1 mg) was added to 1 mL of 0.25 M sodium oleate and mixed using a VORTEX®.
(§5) N-acetylsalicylic acid (18 mg) was added to 31 μL of oleic acid and mixed using a VORTEX®. Ethanolamine (6 μL) was subsequently added and mixed using a VORTEX®. After mixing, the sample was dispersed in 963 μL of water for injection.
(§6) N-acetylsalicylic acid (25 mg) was added to 1 mL of 0.25 M sodium oleate and mixed using a VORTEX®.
(§7) Paclitaxel (18 mg) was added to 31 μL of oleic acid and mixed using a VORTEX®. Ethanolamine (6 μL) was subsequently added and mixed using a VORTEX®. After mixing, the sample was dispersed in 963 μL of water for injection.
(§8) Paclitaxel (5.6 mg) was added to 1 mL of 0.1 M sodium oleate and mixed using a VORTEX®.
(§9) Paclitaxel (2 mg) was added to 1 mL of 1 M sodium caprylate and mixed by a VORTEX®.
Paclitaxel (7.2 mg) was added to 1 mL of 1 M sodium linoleate and mixed using a VORTEX®. […]
For example, Propofol (1% v/v or 10 mg/mL) was dissolved in 100 mM sodium oleate in 5% (w/v) dextrose in water for injection. The resulting solution containing 1% Propofol was lyophilized. […]

[2] = Solubilization of compounds in fatty acid / fatty acid salt (soluble, formulation clear); details: for solubility: aqueous with cosolvent or surfactant or cyclodextrin
Experimental: as §1, §2, §3, §4, §5, §6, §7, §8, §9
Paclitaxel (7.2 mg) was added to 1 mL of 1 M sodium linoleate and mixed using a VORTEX®.
For example, β-Lapachone was dissolved (25 mg/mL) in ethanol:oleic acid (EtOH:OA) at volume to volume ratios of 70%:30%, 75%:25%, or 80%:20% EtOH:OA.
In another example, β-Lapachone was dissolved (50 mg/mL) in dimethylsulfoxide:oleic acid (DMSO:OA) at volume to volume ratios of 60%:40, 70%:30% DMSO:OA or in DMSO:EtOH:OA (30%:30%:40% v/v).
For example, Propofol (1% v/v or 10 mg/mL) was dissolved in 100 mM sodium oleate in 5% (w/v) dextrose in water for injection. The resulting solution containing 1% Propofol was lyophilized.
For example, Paclitaxel (5 mg/mL) was dissolved in 100 mM sodium oleate in 100% ethanol. Ethanol was completely evaporated using rotary evaporation at 20° C. The Paclitaxel-sodium oleate was reconstituted with WFI or 2.5% glycerol to provide 5 mg/mL, 10 mg/mL, or 20 mg/mL concentration of Paclitaxel.

C[C@H]1O[C@@H](O[C@H]2[C@@H](O)C[C@H](O[C@H]3[C@@H](O)C[C@H](O[C@H]4CC[C@@]5(C)[C@H](CC[C@@H]6[C@@H]5C[C@@H](O)[C@]5(C)[C@@H](C7=CC(=O)OC7)CC[C@]65O)C4)O[C@@H]3C)O[C@@H]2C)C[C@H](O)[C@@H]1O [Digoxin]
time remained soluble, formulation stable upon dilution ([1]; 0.25 M sodium oleate, dilution 1:10 in saline, RP-HPLC): up to 24 hours
time remained soluble, formulation stable upon dilution ([1]; oleic acid/ethanolamine formulation, dilution 1:4 in saline, RP-HPLC): up to 24 hours
solubility ([2]; concentration at which soluble and formulation clear, 0.25 M sodium oleate): 1000 µg/mL
solubility ([2]; concentration at which soluble and formulation clear, oleic acid, then ethanolamine, dispersed in water for injection): 1000 µg/mL

CC(=O)Oc1ccccc1C(=O)O [N-acetylsalicylic acid]
time remained soluble, formulation stable upon dilution [1]: up to 24 hours
concentration at which soluble and formulation clear [2]: 25000 µg/mL
solubility ([2]; concentration at which soluble and formulation clear): 18000 µg/mL (≈ 99.9 mM)

CC(=O)O[C@H]1C(=O)[C@@]2(C)[C@H]([C@H](OC(=O)c3ccccc3)[C@]3(O)C[C@H](OC(=O)[C@H](O)[C@@H](NC(=O)c4ccccc4)c4ccccc4)C(C)=C1C3(C)C)[C@]1(OC(C)=O)CO[C@@H]1C[C@@H]2O [Paclitaxel]
time remained soluble, formulation stable upon dilution [1]: up to 24 hours
fold greater than the solubility in water [2]: 630-850 fold
concentration dissolved ([2]; 100 mM sodium oleate in 100% ethanol): 5000 µg/mL
solubility ([2]; solubilization): 6300 to 8500 µg/mL (≈ 7.38 to 9.95 mM)

CC(C)c1cccc(C(C)C)c1O [Propofol]
stability of reconstituted lyophilized compound ([1]; 1% in 100 mM sodium oleate/D5W, lyophilized and reconstituted, RP-HPLC): stable without degradation or impurities
concentration dissolved ([2]; 100 mM sodium oleate in 5% (w/v) dextrose in water for injection (1% v/v)): 10000 µg/mL

CC1(C)CCC2=C(O1)c1ccccc1C(=O)C2=O [β-Lapachone]
final concentration of the dispersed compound ([2]; OA-DMSO/EtOH mixture dispersed in equimolar sodium hydroxide solution): 1.5 mg/mL and 2.0 mg/mL and 2.5 mg/mL
concentration dissolved ([2]; in DMSO:OA 60%:40, 70%:30% or DMSO:EtOH:OA 30%:30%:40% v/v): 50000 µg/mL
concentration dissolved ([2]; in ethanol:oleic acid 70%:30%, 75%:25% or 80%:20% v/v): 25000 µg/mL

— patent publication US7659310B2, “Methods of enhancing solubility of agents” (Formatech, Inc., priority 2004, dated 2010)
